Laboratory results as given in US12264173B2 (GILEAD SCIENCES, INC., priority 2020, dated 2025).
Read-outs that look alike come from different tables or passages of the source.

Key:
Format in all cases: cell-based
RSV A2 = assay: RSV NHBE EC50 (RSV A2 antiviral assay in NHBE cells); details: read-out: RSV NHBE EC50
In short: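 Step 1: seed NHBE cells (7,500/well, BEGM) overnight. Step 2: add 3-fold diluted compound, DMSO 0.05%. Step 3: infect with RSV A2, 1×10^4.5 TCID/mL; incubate 4 days, 37° C. Step 4: CellTiter-Glo luminescence.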

HRV16 = HRV16 HeLa EC50 (cytopathic effect in H1-HeLa cells); details: read-out: HRV16 HeLa EC50
In short: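 Read-out is luminescent cell viability (CellTiter-Glo) after 96 h of infection at 33 °C, scaled between uninfected and infected-untreated wells. Before infection with titrated virus, compounds went onto H1-HeLa cells as triplicate 3-fold dilution series.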

DENV2 replicon = assay: DENV-2 Huh-7 Rep EC50 (replicon luminescence)
In short: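 EC50 derived from luminescence dose-response, normalised to DMSO-only 0% inhibition wells, after 1.5 h with EnduRen substrate. Compounds were first exposed for 48 h at 37° C to DENV2 replicon Huh-7 cells (5,000/well).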

[1] = test system: Dengue serotype 2 New Guinea C (NGC) strain; assay: DENV-2 Huh-7 EC50 (qPCR in Huh7 cells)
Description: Huh7 (Human hepatocarcinoma 7) cells were maintained in 10% FCS-containing DMEM complete media. On the day of the assay, cells were trypsinized (0.1% Trypsin-EDTA), washed and infected for 2 hours in serum-free DMEM with Dengue serotype 2 New Guinea C (NGC) strain at MOI=0.1 with gentle agitation at 37° C. After 2 hours, cells were washed with serum-free media and suspended in 10% FCS-containing DMEM (Gibco, supplemented with sodium pyruvate, NEAA, Penicillin-Streptomycin). 10^5 cells were plated in triplicate in 96-well plates with compounds dispensed at graded doses (Hewlett-Packard D300 Digital Dispenser). All wells were normalized to 0.25% DMSO. At 48 hours, cells were washed with 1×PBS and all supernatants removed. Total RNA was extracted using RNEasy 96 plates (Qiagen) and used to generate first-strand cDNA using XLT cDNA 5× Supermix (QuantaBio). cDNA was used as a template in a Taqman qPCR duplex reaction specific to DENV2 viral and GAPDH gene expression. EC50 values were determined using Prism Graphpad software, with normalization to a positive control and no compound negative control wells.

RSV strain A2 = assay: microbe, parasite or virus in culture; details: Table 3, HEp-2 cells, RSV A2, 4 days, read-out: RSV HEp-2 EC50
In short: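 Cytopathic-effect protection assay: HEp-2 cells (50,000/mL) infected with pre-titered RSV A2 onto 3-fold serial compound dilutions, incubated 4 days at 37° C. Cell viability read by CellTiter-Glo luminescence; percent inhibition derived against 0% and 100% virus-inhibition controls.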

[2] = Table 3, NHBE cells, RSV A2, 4 days
[3] = Table 3, Huh-7 DENV2 replicon cells, 48 hours, read-out: DENV-2 REP Huh7 EC50
[4] = human respiratory syncytial virus, HEp-2, 96 h
[5] = human respiratory syncytial virus, NHBE, 96 h, Table 3, NHBE cells, RSV A2, 4 days
[6] = 96 h, Table 3, H1-HeLa cells, 96 h
[7] = Dengue virus, DENV2, Huh-7, 48 h, read-out: DENV-2 REP Huh7 EC50, Table 3, Huh-7 DENV2 replicon cells, 48 hours
[8] = Dengue virus, DENV2, Huh-7, 48 h, read-out: DENV-2 REP Huh7 EC50

SMILES	EC50 (RSV strain A2)	EC50 (RSV A2; [2])	EC50 (HRV16; Table 3, H1-HeLa cells, 96 h)	EC50 (RSV strain A2; [4])	EC50 (RSV A2; [5])	EC50 (HRV16; [6])	further results
CCOC(=O)[C@H](C)N[P@](=O)(OC[C@@]1(C#N)O[C@@H](c2ccc3c(N)ncnn23)[C@H](O)[C@@H]1O)Oc1ccccc1 [Example 29, Ethyl ((S)-(((2R,3S,4R,5S)-5-(4-aminopyrrolo[2,1-f][1,2,4]triazin-7-yl)-2-cyano-3,4-dihydroxytetrahydrofuran-2-yl)methoxy)(phenoxy)phosphoryl)-L-alaninate]							EC50 (RSV A2; human respiratory syncytial virus, NHBE, Table 5 comparative activity, 2',3'-OH vs -OC(O)iPr): 932 nM; EC50 (HRV16; HeLa, Table 5 comparative activity, 2',3'-OH vs -OC(O)iPr): 678 nM; EC50 (DENV2 replicon; Dengue virus, DENV2, Huh-7, read-out: DENV Rep EC50): 36100 nM; EC50 ([1]; Dengue virus, Huh-7, Table 5 comparative activity, 2',3'-OH vs -OC(O)iPr, read-out: DENV Huh7 EC50): 1880 nM
CCC(=O)O[C@H]1[C@H](c2ccc3c(N)ncnn23)O[C@](C#N)(CO[P@](=O)(N[C@@H](C)C(=O)OCC2CC2)Oc2ccccc2)[C@H]1OC(=O)CC [Example 100]	58 nM	13 nM	147 nM				EC50 (DENV2 replicon; [3]): 18800 nM; EC50 ([1]; Table 3, Huh7 cells, 48 hours, read-out: DENV-2 Huh7 EC50): 1130 nM
CCCCC(=O)O[C@H]1[C@H](c2ccc3c(N)ncnn23)O[C@](C#N)(COP(=O)(N[C@@H](C)C(=O)OCC)N[C@@H](C)C(=O)OCC)[C@H]1OC(=O)CCCC [Example 211, (2R,3S,4S,5S)-5-(4-Aminopyrrolo[2,1-f][1,2,4]triazin-7-yl)-2-(((bis(((S)-1-ethoxy-1-oxopropan-2-yl)amino)phosphoryl)oxy)methyl)-2-cyanotetrahydrofuran-3,4-diyl dipentanoate]	653 nM	946 nM	1970 nM				EC50 (DENV2 replicon; read-out: DENV-2 REP Huh7 EC50, Table 3, Huh-7 DENV2 replicon cells, 48 hours): 28900 nM
CCCC(=O)O[C@H]1[C@H](c2ccc3c(N)ncnn23)O[C@](C#N)(COP(=O)(N[C@@H](C)C(=O)OC)N[C@@H](C)C(=O)OC)[C@H]1OC(=O)CCC [Example 212, (2R,3S,4S,5S)-5-(4-Aminopyrrolo[2,1-f][1,2,4]triazin-7-yl)-2-(((bis(((S)-1-methoxy-1-oxopropan-2-yl)amino)phosphoryl)oxy)methyl)-2-cyanotetrahydrofuran-3,4-diyl dibutyrate]				1180 nM	451 nM	6120 nM	EC50 (DENV2 replicon; [7]): > 71400 nM
CSCCOP(=O)(N[C@@H](C)C(=O)OC(C)C)OC[C@@]1(C#N)O[C@@H](c2ccc3c(N)ncnn23)[C@H](OC(=O)C(C)C)[C@@H]1OC(=O)C(C)C (stereo partly drawn) [Example 213, (2R,3S,4S,5S)-5-(4-aminopyrrolo[2,1-f][1,2,4]triazin-7-yl)-2-cyano-2-((((((S)-1-isopropoxy-1-oxopropan-2-yl)amino)(2-(methylthio)ethoxy)phosphoryl)oxy)methyl) tetrahydrofuran-3,4-diyl bis(2-methylpropanoate)]				11800 nM	2250 nM	13100 nM	EC50 (DENV2 replicon; [7]): 23000 nM
COCCOP(=O)(N[C@@H](C)C(=O)OC(C)C)OC[C@@]1(C#N)O[C@@H](c2ccc3c(N)ncnn23)[C@H](OC(=O)C(C)C)[C@@H]1OC(=O)C(C)C (stereo partly drawn) [Example 214, (2R,3S,4S,5S)-5-(4-aminopyrrolo[2,1-f][1,2,4]triazin-7-yl)-2-cyano-2-((((((S)-1-isopropoxy-1-oxopropan-2-yl)amino)(2-methoxyethoxy)phosphoryl)oxy)methyl) tetrahydrofuran-3,4-diyl bis(2-methylpropanoate)]				> 41700 nM	> 3890 nM	31300 nM	EC50 (DENV2 replicon; [7]): > 50000 nM
CCC(=O)O[C@H]1[C@H](c2ccc3c(N)ncnn23)O[C@](C#N)(COP(=O)(N[C@@H](C)C(=O)OC(C)C)Oc2ccc(OCCOC)cc2)[C@H]1OC(=O)CC (stereo partly drawn) [Example 215, (2R,3S,4S,5S)-5-(4-aminopyrrolo[2,1-f][1,2,4]triazin-7-yl)-2-cyano-2-((((((S)-1-isopropoxy-1-oxopropan-2-yl)amino)(4-(2-methoxyethoxy)phenoxy)phosphoryl)oxy)methyl)tetrahydrofuran-3,4-diyl dipropionate]				378 nM	142 nM	1020 nM	EC50 (DENV2 replicon; [8]): 27200 nM
CC(C)OC(=O)[C@H](C)N[P@](=O)(OC[C@@]1(C#N)O[C@@H](c2ccc3c(N)ncnn23)[C@H](OC(=O)CN2CCOCC2)[C@@H]1OC(=O)CN1CCOCC1)Oc1ccccc1 [Example 216, (2R,3S,4S,5S)-5-(4-aminopyrrolo[2,1-f][1,2,4]triazin-7-yl)-2-cyano-2-((((S)-(((S)-1-isopropoxy-1-oxopropan-2-yl)amino)(phenoxy)phosphoryl)oxy)methyl) tetrahydrofuran-3,4-diyl bis(2-morpholinoacetate)]				262 nM	3870 nM	3500 nM	EC50 (DENV2 replicon; [8]): 31200 nM
CCC(=O)O[C@H]1[C@H](c2ccc3c(N)ncnn23)O[C@](C#N)(COP(=O)(N[C@@H](C)C(=O)OC(C)C)Oc2ccc(C[C@H](N)C(=O)OC)cc2)[C@H]1OC(=O)CC (stereo partly drawn) [Example 217, (2R,3S,4S,5S)-2-((((4-((S)-2-amino-3-methoxy-3-oxopropyl)phenoxy)(((S)-1-isopropoxy-1-oxopropan-2-yl)amino)phosphoryl)oxy)methyl)-5-(4-aminopyrrolo[2,1-f][1,2,4]triazin-7-yl)-2-cyanotetrahydrofuran-3,4-diyl dipropionate]				9840 nM	2060 nM	11900 nM	EC50 (DENV2 replicon; [8]): > 50000 nM
CC(C)C(=O)O[C@H]1[C@H](c2ccc3c(/N=C/N(C)C)ncnn23)O[C@](C#N)(COP(=O)(N[C@@H](C)C(=O)OC2CCOCC2)Oc2ccccc2)[C@H]1OC(=O)C(C)C (stereo partly drawn) [Example 218, (2R,3S,4S,5S)-2-cyano-5-(4-(((E)-(dimethylamino)methylene)amino)pyrrolo[2,1-f][1,2,4]triazin-7-yl)-2-((((((S)-1-oxo-1-((tetrahydro-2H-pyran-4-yl)oxy)propan-2-yl)amino)(phenoxy)phosphoryl)oxy)methyl) tetrahydrofuran-3,4-diyl bis(2-methylpropanoate)]	30 nM	17 nM	112 nM				EC50 (DENV2 replicon; [3]): 5510 nM
C/C(=N\c1ncnn2c([C@@H]3O[C@](C#N)(COP(=O)(N[C@@H](C)C(=O)OC4CCOCC4)Oc4ccccc4)[C@@H](OC(=O)C(C)C)[C@H]3OC(=O)C(C)C)ccc12)N(C)C (stereo partly drawn) [Example 219, (2R,3S,4S,5S)-2-cyano-5-(4-(((E)-1-(dimethylamino)ethylidene)amino)pyrrolo[2,1-f][1,2,4]triazin-7-yl)-2-((((((S)-1-oxo-1-((tetrahydro-2H-pyran-4-yl)oxy)propan-2-yl)amino)(phenoxy)phosphoryl)oxy)methyl) tetrahydrofuran-3,4-diyl bis(2-methylpropanoate)]	67 nM	82 nM	356 nM				EC50 (DENV2 replicon; [3]): 16400 nM
